The source of these data is patent US9365614B2, “IAP BIR domain binding compounds” (priority 2006, dated 2016).

Molecules are shown by their SMILES. A value given as a limit tells only on which side of the number the result lay.

The experiment relates to SKOV-3 cells. The experiment can be described thus: Survival MTT assay, SKOV-3. Type of experiment: cell-based. The following applies: Homo sapiens, SK-OV-3, 72 h, read-out: SKOV-3 EC50. On the procedure:
One day prior the treatment with compound, 2000 to 4000 cells per well were plated in a tissue culture treated 96 well format dish with 100 ul of media and incubated at 37° C., 5% CO2. On the day of compound treatment, compounds were diluted with cell culture media to a working stock concentration of 2×. 100 uL of diluted compound were then added to each well. The treated plate was incubated for 72 h at 37° C., 5% CO2. Upon incubation, the cell viability was assessed as followed 20 uL of MTT reagent at 5 mg/ml were added per well to cell plate. The plate was incubated for 2 h at 37° C. in presence of 5% CO2. The supernatant was then removed from the plate and 100 uL of isopropanol were added. The absorbance was measured in a TECAN spectrophotometer at 570 nm. The percentage of viability was expressed in percentage of the signal obtained with non treated cells.
Background: Tetrazolium dyes change colour on reduction, which living cells bring about.

One may read the EC50 as the concentration that produces a half-maximal response.

As to `CN[C@@H](C)C(=O)N[C@H](C(=O)N1C[C@@H](NC(=O)c2ccc(C(=O)N[C@H]3C[C@@H](C(=O)N[C@@H]4CCCc5ccccc54)N(C(=O)[C@@H](NC(=O)[C@H](C)NC)C(C)(C)C)C3)cc2)C[C@H]1C(=O)NC1CCCc2ccccc21)C(C)(C)C` (stereo partly drawn) [Compound 34], the concentration giving a half-maximal response (EC50) was under 250 nM.

As to `CN[C@@H](C)C(=O)N[C@H](C(=O)N1C[C@@H](NC(=O)CNC(=O)c2ccc(C(=O)NCC(=O)N[C@H]3C[C@@H](C(=O)N[C@@H]4CCCc5ccccc54)N(C(=O)[C@@H](NC(=O)[C@H](C)NC)C(C)(C)C)C3)cc2)C[C@H]1C(=O)N[C@@H]1CCCc2ccccc21)C(C)(C)C` [Compound 35], the EC50 is under 250 nM.

As for `CN[C@@H](C)C(=O)N[C@H](C(=O)N1C[C@@H](NC(=O)CNC(=O)C(=O)NCC(=O)N[C@H]2C[C@@H](C(=O)N[C@@H]3CCCc4ccccc43)N(C(=O)[C@@H](NC(=O)[C@H](C)NC)C(C)(C)C)C2)C[C@H]1C(=O)N[C@@H]1CCCc2ccccc21)C(C)(C)C` [Compound 36], the EC50 was over 1000 nM.

As to `CN[C@@H](C)C(=O)NC(C(=O)N1C[C@@H](NC(=O)CNC(=O)c2cccc(C(=O)NCC(=O)N[C@H]3C[C@@H](C(=O)N[C@@H]4CCCc5ccccc54)N(C(=O)[C@@H](NC(=O)[C@H](C)NC)C(C)(C)C)C3)c2)CC1C(=O)N[C@@H]1CCCc2ccccc21)C(C)(C)C` (stereo partly drawn) [Compound 37], the 50% effective concentration (EC50) is over 1000 nM.

In the case of `CN[C@@H](C)C(=O)N[C@H](C(=O)N1C[C@@H](NC(=O)CNC(=O)c2ccc(-c3ccc(C(=O)NCC(=O)N[C@H]4C[C@@H](C(=O)N[C@@H]5CCCc6ccccc65)N(C(=O)[C@@H](NC(=O)[C@H](C)NC)C(C)(C)C)C4)cc3)cc2)C[C@H]1C(=O)N[C@@H]1CCCc2ccccc21)C(C)(C)C` [Compound 38], the EC50 was under 250 nM.

Consider `CN[C@@H](C)C(=O)N[C@H](C(=O)N1C[C@@H](NS(=O)(=O)c2ccc(-c3ccc(S(=O)(=O)N[C@H]4C[C@@H](C(=O)N[C@@H]5CCCc6ccccc65)N(C(=O)[C@@H](NC(=O)[C@H](C)NC)C(C)(C)C)C4)cc3)cc2)C[C@H]1C(=O)NC1CCCc2ccccc21)C(C)(C)C` (stereo partly drawn) [Compound 39], for which the EC50 was under 50 nM.

With `CN[C@@H](C)C(=O)N[C@H](C(=O)N1C[C@@H](NC(=O)c2cccc(C(=O)N[C@H]3C[C@@H](C(=O)N[C@@H]4CCCc5ccccc54)N(C(=O)[C@@H](NC(=O)[C@H](C)NC)C(C)(C)C)C3)c2)C[C@H]1C(=O)N[C@@H]1CCCc2ccccc21)C(C)(C)C` [Compound 40], the EC50 was under 50 nM.

Turning to `CN[C@@H](C)C(=O)N[C@H](C(=O)N1C[C@@H](NC(=O)c2cncc(C(=O)N[C@H]3C[C@@H](C(=O)N[C@@H]4CCCc5ccccc54)N(C(=O)[C@@H](NC(=O)[C@H](C)NC)C(C)(C)C)C3)c2)C[C@H]1C(=O)N[C@@H]1CCCc2ccccc21)C(C)(C)C` [Compound 41], the EC50 is under 50 nM.

For `CN[C@@H](C)C(=O)N[C@H](C(=O)N1C[C@@H](NC(=O)c2cccc(C(=O)N[C@H]3C[C@@H](C(=O)N[C@@H]4CCCc5ccccc54)N(C(=O)[C@@H](NC(=O)[C@H](C)NC)C(C)(C)C)C3)n2)C[C@H]1C(=O)N[C@@H]1CCCc2ccccc21)C(C)(C)C` [Compound 43], the EC50 is under 250 nM.

In the case of `CN[C@@H](C)C(=O)N[C@H](C(=O)N1C[C@@H](NC(=O)Nc2ccc(NC(=O)N[C@H]3C[C@@H](C(=O)N[C@@H]4CCCc5ccccc54)N(C(=O)[C@@H](NC(=O)[C@H](C)NC)C(C)(C)C)C3)cc2)C[C@H]1C(=O)N[C@@H]1CCCc2ccccc21)C(C)(C)C` [Compound 44], the EC50 was under 50 nM.

Regarding `CN[C@@H](C)C(=O)N[C@H](C(=O)N1C[C@@H](NC(=O)c2ccc(C(=O)N[C@H]3C[C@@H](C(=O)NCc4ccccc4)N(C(=O)[C@@H](NC(=O)[C@H](C)NC)C(C)(C)C)C3)cc2)C[C@H]1C(=O)NCc1ccccc1)C(C)(C)C` [Compound 46], the EC50 was under 250 nM.

As to `CN[C@@H](C)C(=O)N[C@H](C(=O)N1C[C@@H](NC(=O)c2ccc(C(=O)N[C@H]3C[C@@H](C(=O)NC4c5ccccc5-c5ccccc54)N(C(=O)[C@@H](NC(=O)[C@H](C)NC)C(C)(C)C)C3)cc2)C[C@H]1C(=O)NC1c2ccccc2-c2ccccc21)C(C)(C)C` [Compound 47], the EC50 was under 50 nM.

In the case of `CN[C@@H](C)C(=O)N[C@H](C(=O)N1C[C@@H](NC(=O)c2ccc(C(=O)N[C@H]3C[C@@H](C(=O)NCc4cccc(-c5ccccc5)c4)N(C(=O)[C@@H](NC(=O)[C@H](C)NC)C(C)(C)C)C3)cc2)C[C@H]1C(=O)NCc1cccc(-c2ccccc2)c1)C(C)(C)C` [Compound 48], the EC50 was under 250 nM.

As to `CN[C@@H](C)C(=O)N[C@H](C(=O)N1C[C@@H](NC(=O)c2ccc(C(=O)N[C@H]3C[C@@H](C(=O)N[C@H](C)c4ccccc4)N(C(=O)[C@@H](NC(=O)[C@H](C)NC)C(C)(C)C)C3)cc2)C[C@H]1C(=O)N[C@H](C)c1ccccc1)C(C)(C)C` [Compound 49], the EC50 is under 50 nM.

For `CN[C@@H](C)C(=O)N[C@H](C(=O)N1C[C@@H](NC(=O)c2ccc(C(=O)N[C@H]3C[C@@H](C(=O)N[C@@H](C)c4ccccc4)N(C(=O)[C@@H](NC(=O)[C@H](C)NC)C(C)(C)C)C3)cc2)C[C@H]1C(=O)N[C@@H](C)c1ccccc1)C(C)(C)C` [Compound 50], the EC50 is under 250 nM.

For the compound `CN[C@@H](C)C(=O)N[C@H](C(=O)N1C[C@@H](NC(=O)c2ccc(C(=O)N[C@H]3C[C@@H](C(=O)NC(c4ccc(OC)cc4)c4ccc(OC)cc4)N(C(=O)[C@@H](NC(=O)[C@H](C)NC)C(C)(C)C)C3)cc2)C[C@H]1C(=O)NC(c1ccc(OC)cc1)c1ccc(OC)cc1)C(C)(C)C` [Compound 51], the 50% effective concentration (EC50) is under 250 nM.

Turning to `CN[C@@H](C)C(=O)N[C@H](C(=O)N1C[C@@H](NC(=O)C2CCC(C(=O)N[C@H]3C[C@@H](C(=O)N[C@@H]4CCCc5ccccc54)N(C(=O)[C@@H](NC(=O)[C@H](C)NC)C(C)(C)C)C3)CC2)C[C@H]1C(=O)N[C@@H]1CCCc2ccccc21)C(C)(C)C` (stereo partly drawn) [Compound 52], the EC50 was under 50 nM.

Turning to `CC[C@H](N)C(=O)N[C@H](C(=O)N1C[C@@H](NC(=O)c2ccc(C(=O)N[C@H]3C[C@@H](C(=O)N[C@@H]4CCCc5ccccc54)N(C(=O)[C@@H](NC(=O)[C@@H](N)CC)C(C)(C)C)C3)cc2)C[C@H]1C(=O)N[C@@H]1CCCc2ccccc21)C(C)(C)C` [Compound 53], the EC50 was over 1000 nM.

On to `CN[C@@H](C)C(=O)N[C@H](C(=O)N1C[C@@H](NC(=O)c2ccc(C(=O)N[C@H]3C[C@@H](C(=O)N[C@@H](CO)c4ccccc4)N(C(=O)[C@@H](NC(=O)[C@H](C)NC)C(C)(C)C)C3)cc2)C[C@H]1C(=O)N[C@@H](CO)c1ccccc1)C(C)(C)C` [Compound 54], for which the EC50 is over 1000 nM.

Take `CN[C@@H](C)C(=O)N[C@H](C(=O)N1C[C@@H](NC(=O)c2ccc(C(=O)N[C@H]3C[C@@H](C(=O)N[C@@H]4CCCc5ccccc54)N(C(=O)[C@@H](NC(=O)[C@H](C)NC)C(C)(C)C)C3)cc2)C[C@H]1C(=O)N[C@@H]1CCCc2ccccc21)C(C)(C)C` [Compound 55]: the EC50 was under 50 nM.

Turning to `CN[C@@H](C)C(=O)N[C@H](C(=O)N1C[C@@H](NS(=O)(=O)c2ccc3cc(S(=O)(=O)N[C@H]4C[C@@H](C(=O)N[C@@H]5CCCc6ccccc65)N(C(=O)[C@@H](NC(=O)[C@H](C)NC)C(C)(C)C)C4)ccc3c2)C[C@H]1C(=O)N[C@@H]1CCCc2ccccc21)C(C)(C)C` [Compound 56], the concentration giving a half-maximal response (EC50) is under 50 nM.
